Assay results as given in the supplement of paper PMC10307832.

Columns and labels:
Experiment in all cases: relative viability (nuclei count vs DMSO), 5 days (fraction); higher = more cells survive
KIN001-266 = compound: CCN1CCC(CC1)N2C=C(N=N2)CNC3=CC4=C(C(=CN=C4C(=C3)Cl)C#N)NC5=CC(=C(C=C5)F)Cl [KIN001-266]
Summary of the method: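 Viability was read as treated-well nuclei divided by vehicle-well nuclei, using the median across plates. Lung cancer cell lines in 1536-well plates were kept overnight at 37 °C, pinned with five √10-spaced library-drug doses, and after 5 days were Hoechst-stained, imaged at 4× and counted in MetaXpress. Plates passed only with control CV below 25% and at least one doubling.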

KIN001-266 + Olaparib = compound: CCN1CCC(CC1)N2C=C(N=N2)CNC3=CC4=C(C(=CN=C4C(=C3)Cl)C#N)NC5=CC(=C(C=C5)F)Cl [KIN001-266] + O=C(c1cc(Cc2n[nH]c(=O)c3ccccc23)ccc1F)N1CCN(C(=O)C2CC2)CC1 [Olaparib] (partner 8 µM)
Summary of the method: (§1)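 Lung cancer cell lines in 1536-well plates were dosed by pin tool the day after seeding, either with one drug alone or with a fixed anchor-drug dose plus five library-drug doses (not always all listed) in √10 steps. After 5 days, cells were fixed and their nuclei stained in one step (final 0.05% Triton X-100, 1% formaldehyde, 1 ug/ml Hoechst), then counted on 4× images. Relative viability is the nuclei count in treated wells divided by that in vehicle wells. Values are medians of duplicate plates.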

KIN001-266 + Lapatinib = compound: CCN1CCC(CC1)N2C=C(N=N2)CNC3=CC4=C(C(=CN=C4C(=C3)Cl)C#N)NC5=CC(=C(C=C5)F)Cl [KIN001-266] + CS(=O)(=O)CCNCc1ccc(-c2ccc3ncnc(Nc4ccc(OCc5cccc(F)c5)c(Cl)c4)c3c2)o1 [Lapatinib] (partner 2 µM)
Summary of the method: as §1

KIN001-266 + Foretinib = compound: CCN1CCC(CC1)N2C=C(N=N2)CNC3=CC4=C(C(=CN=C4C(=C3)Cl)C#N)NC5=CC(=C(C=C5)F)Cl [KIN001-266] + COc1cc2c(Oc3ccc(NC(=O)C4(C(=O)Nc5ccc(F)cc5)CC4)cc3F)ccnc2cc1OCCCN1CCOCC1 [Foretinib] (partner 0.25 µM)
Summary of the method: as §1

KIN001-266 + Crizotinib = compound: CCN1CCC(CC1)N2C=C(N=N2)CNC3=CC4=C(C(=CN=C4C(=C3)Cl)C#N)NC5=CC(=C(C=C5)F)Cl [KIN001-266] + C[C@@H](Oc1cc(-c2cnn(C3CCNCC3)c2)cnc1N)c1c(Cl)ccc(F)c1Cl [Crizotinib] (partner 1 µM)
Summary of the method: as §1

KIN001-266 + Phenformin = compound: CCN1CCC(CC1)N2C=C(N=N2)CNC3=CC4=C(C(=CN=C4C(=C3)Cl)C#N)NC5=CC(=C(C=C5)F)Cl [KIN001-266] + N=C(N)NC(=N)NCCc1ccccc1 [Phenformin] (partner 250 µM)
Summary of the method: as §1

KIN001-266 + Navitoclax = compound: CCN1CCC(CC1)N2C=C(N=N2)CNC3=CC4=C(C(=CN=C4C(=C3)Cl)C#N)NC5=CC(=C(C=C5)F)Cl [KIN001-266] + CC1(C)CCC(c2ccc(Cl)cc2)=C(CN2CCN(c3ccc(C(=O)NS(=O)(=O)c4ccc(N[C@H](CCN5CCOCC5)CSc5ccccc5)c(S(=O)(=O)C(F)(F)F)c4)cc3)CC2)C1 [Navitoclax] (partner 0.5 µM)
Summary of the method: as §1

KIN001-266 + Linsitinib = compound: CCN1CCC(CC1)N2C=C(N=N2)CNC3=CC4=C(C(=CN=C4C(=C3)Cl)C#N)NC5=CC(=C(C=C5)F)Cl [KIN001-266] + C[C@]1(O)C[C@@H](c2nc(-c3ccc4ccc(-c5ccccc5)nc4c3)c3c(N)nccn32)C1 [Linsitinib] (partner 1 µM)
Summary of the method: as §1

KIN001-266 + Decitabine = compound: CCN1CCC(CC1)N2C=C(N=N2)CNC3=CC4=C(C(=CN=C4C(=C3)Cl)C#N)NC5=CC(=C(C=C5)F)Cl [KIN001-266] + Nc1ncn([C@H]2C[C@H](O)[C@@H](CO)O2)c(=O)n1 [Decitabine] (partner 2 µM)
Summary of the method: as §1

KIN001-266 + Alpelisib = compound: CCN1CCC(CC1)N2C=C(N=N2)CNC3=CC4=C(C(=CN=C4C(=C3)Cl)C#N)NC5=CC(=C(C=C5)F)Cl [KIN001-266] + Cc1nc(NC(=O)N2CCC[C@H]2C(N)=O)sc1-c1ccnc(C(C)(C)C(F)(F)F)c1 [Alpelisib] (partner 2 µM)
Summary of the method: as §1

KIN001-266 + Pictilisib = compound: CCN1CCC(CC1)N2C=C(N=N2)CNC3=CC4=C(C(=CN=C4C(=C3)Cl)C#N)NC5=CC(=C(C=C5)F)Cl [KIN001-266] + CS(=O)(=O)N1CCN(Cc2cc3nc(-c4cccc5[nH]ncc45)nc(N4CCOCC4)c3s2)CC1 [Pictilisib] (partner 1 µM)
Summary of the method: as §1

KIN001-266 + Tozasertib = compound: CCN1CCC(CC1)N2C=C(N=N2)CNC3=CC4=C(C(=CN=C4C(=C3)Cl)C#N)NC5=CC(=C(C=C5)F)Cl [KIN001-266] + Cc1cc(Nc2cc(N3CCN(C)CC3)nc(Sc3ccc(NC(=O)C4CC4)cc3)n2)n[nH]1 [Tozasertib] (partner 0.1 µM)
Summary of the method: as §1

KIN001-266 + Luminespib = compound: CCN1CCC(CC1)N2C=C(N=N2)CNC3=CC4=C(C(=CN=C4C(=C3)Cl)C#N)NC5=CC(=C(C=C5)F)Cl [KIN001-266] + CCNC(=O)c1noc(-c2cc(C(C)C)c(O)cc2O)c1-c1ccc(CN2CCOCC2)cc1 [Luminespib] (partner 0.01 µM)
Summary of the method: as §1

KIN001-266 + OSI-027 = compound: CCN1CCC(CC1)N2C=C(N=N2)CNC3=CC4=C(C(=CN=C4C(=C3)Cl)C#N)NC5=CC(=C(C=C5)F)Cl [KIN001-266] + COc1cccc2cc(-c3nc([C@H]4CC[C@H](C(=O)O)CC4)n4ncnc(N)c34)[nH]c12 [OSI-027] (partner 0.5 µM)
Summary of the method: as §1

KIN001-266 + Dasatinib = compound: CCN1CCC(CC1)N2C=C(N=N2)CNC3=CC4=C(C(=CN=C4C(=C3)Cl)C#N)NC5=CC(=C(C=C5)F)Cl [KIN001-266] + Cc1nc(Nc2ncc(C(=O)Nc3c(C)cccc3Cl)s2)cc(N2CCN(CCO)CC2)n1 [Dasatinib] (partner 0.075 µM)
Summary of the method: as §1

Cell Line: A549
- relative viability (KIN001-266; 0.08 µM): 1.02
- relative viability (KIN001-266; 0.253 µM): 0.974
- relative viability (KIN001-266; 0.8 µM): 1.03
- relative viability (KIN001-266; 2.53 µM): 0.891
- relative viability (KIN001-266; 8 µM): 0.939
- relative viability (KIN001-266 + Olaparib; first compound 0.08 µM): 0.367
- relative viability (KIN001-266 + Olaparib; first compound 0.253 µM): 0.279
- relative viability (KIN001-266 + Olaparib; first compound 0.8 µM): 0.297
- relative viability (KIN001-266 + Olaparib; first compound 2.53 µM): 0.347
- relative viability (KIN001-266 + Olaparib; first compound 8 µM): 0.305
- relative viability (KIN001-266 + Lapatinib; first compound 0.08 µM): 1.03
- relative viability (KIN001-266 + Lapatinib; first compound 0.253 µM): 0.991
- relative viability (KIN001-266 + Lapatinib; first compound 0.8 µM): 1.05
- relative viability (KIN001-266 + Lapatinib; first compound 2.53 µM): 0.924
- relative viability (KIN001-266 + Lapatinib; first compound 8 µM): 0.84
- relative viability (KIN001-266 + Foretinib; first compound 0.08 µM): 0.95
- relative viability (KIN001-266 + Foretinib; first compound 0.253 µM): 0.854
- relative viability (KIN001-266 + Foretinib; first compound 0.8 µM): 1.04
- relative viability (KIN001-266 + Foretinib; first compound 2.53 µM): 0.87
- relative viability (KIN001-266 + Foretinib; first compound 8 µM): 0.926
- relative viability (KIN001-266 + Crizotinib; first compound 0.08 µM): 0.771
- relative viability (KIN001-266 + Crizotinib; first compound 0.253 µM): 0.733
- relative viability (KIN001-266 + Crizotinib; first compound 0.8 µM): 0.83
- relative viability (KIN001-266 + Crizotinib; first compound 2.53 µM): 0.739
- relative viability (KIN001-266 + Crizotinib; first compound 8 µM): 0.693
- relative viability (KIN001-266 + Phenformin; first compound 0.08 µM): 0.22
- relative viability (KIN001-266 + Phenformin; first compound 0.253 µM): 0.178
- relative viability (KIN001-266 + Phenformin; first compound 0.8 µM): 0.131
- relative viability (KIN001-266 + Phenformin; first compound 2.53 µM): 0.14
- relative viability (KIN001-266 + Phenformin; first compound 8 µM): 0.14
- relative viability (KIN001-266 + Navitoclax; first compound 0.08 µM): 1.26
- relative viability (KIN001-266 + Navitoclax; first compound 0.253 µM): 1.17
- relative viability (KIN001-266 + Navitoclax; first compound 0.8 µM): 1.27
- relative viability (KIN001-266 + Navitoclax; first compound 2.53 µM): 1.3
- relative viability (KIN001-266 + Navitoclax; first compound 8 µM): 1.2
- relative viability (KIN001-266 + Linsitinib; first compound 0.08 µM): 0.604
- relative viability (KIN001-266 + Linsitinib; first compound 0.253 µM): 0.55
- relative viability (KIN001-266 + Linsitinib; first compound 0.8 µM): 0.562
- relative viability (KIN001-266 + Linsitinib; first compound 2.53 µM): 0.668
- relative viability (KIN001-266 + Linsitinib; first compound 8 µM): 0.592
- relative viability (KIN001-266 + Decitabine; first compound 0.08 µM): 0.401
- relative viability (KIN001-266 + Decitabine; first compound 0.253 µM): 0.207
- relative viability (KIN001-266 + Decitabine; first compound 0.8 µM): 0.24
- relative viability (KIN001-266 + Decitabine; first compound 2.53 µM): 0.35
- relative viability (KIN001-266 + Decitabine; first compound 8 µM): 0.223
- relative viability (KIN001-266 + Alpelisib; first compound 0.08 µM): 1.01
- relative viability (KIN001-266 + Alpelisib; first compound 0.253 µM): 0.782
- relative viability (KIN001-266 + Alpelisib; first compound 0.8 µM): 0.898
- relative viability (KIN001-266 + Alpelisib; first compound 2.53 µM): 0.758
- relative viability (KIN001-266 + Alpelisib; first compound 8 µM): 0.701
- relative viability (KIN001-266 + Pictilisib; first compound 0.08 µM): 0.584
- relative viability (KIN001-266 + Pictilisib; first compound 0.253 µM): 0.527
- relative viability (KIN001-266 + Pictilisib; first compound 0.8 µM): 0.519
- relative viability (KIN001-266 + Pictilisib; first compound 2.53 µM): 0.584
- relative viability (KIN001-266 + Pictilisib; first compound 8 µM): 0.393

Cell Line: NCI-H1623
- relative viability (KIN001-266; 0.08 µM): 0.963
- relative viability (KIN001-266; 0.253 µM): 0.96
- relative viability (KIN001-266; 0.8 µM): 0.955
- relative viability (KIN001-266; 2.53 µM): 1.07
- relative viability (KIN001-266; 8 µM): 1.01
- relative viability (KIN001-266 + Tozasertib; first compound 0.08 µM): 0.468
- relative viability (KIN001-266 + Tozasertib; first compound 0.253 µM): 0.421
- relative viability (KIN001-266 + Tozasertib; first compound 0.8 µM): 0.461
- relative viability (KIN001-266 + Tozasertib; first compound 2.53 µM): 0.432
- relative viability (KIN001-266 + Tozasertib; first compound 8 µM): 0.422
- relative viability (KIN001-266 + Luminespib; first compound 0.08 µM): 0.423
- relative viability (KIN001-266 + Luminespib; first compound 0.253 µM): 0.624
- relative viability (KIN001-266 + Luminespib; first compound 0.8 µM): 0.57
- relative viability (KIN001-266 + Luminespib; first compound 2.53 µM): 0.475
- relative viability (KIN001-266 + Luminespib; first compound 8 µM): 0.536
- relative viability (KIN001-266 + OSI-027; first compound 0.08 µM): 0.457
- relative viability (KIN001-266 + OSI-027; first compound 0.253 µM): 0.437
- relative viability (KIN001-266 + OSI-027; first compound 0.8 µM): 0.385
- relative viability (KIN001-266 + OSI-027; first compound 2.53 µM): 0.453
- relative viability (KIN001-266 + OSI-027; first compound 8 µM): 0.433
- relative viability (KIN001-266 + Foretinib; first compound 0.08 µM): 1.05
- relative viability (KIN001-266 + Foretinib; first compound 0.253 µM): 0.865
- relative viability (KIN001-266 + Foretinib; first compound 0.8 µM): 0.871
- relative viability (KIN001-266 + Foretinib; first compound 2.53 µM): 0.894
- relative viability (KIN001-266 + Foretinib; first compound 8 µM): 0.875
- relative viability (KIN001-266 + Phenformin; first compound 0.08 µM): 0.652
- relative viability (KIN001-266 + Phenformin; first compound 0.253 µM): 0.603
- relative viability (KIN001-266 + Phenformin; first compound 0.8 µM): 0.577
- relative viability (KIN001-266 + Phenformin; first compound 2.53 µM): 0.611
- relative viability (KIN001-266 + Phenformin; first compound 8 µM): 0.526
- relative viability (KIN001-266 + Dasatinib; first compound 0.08 µM): 0.579
- relative viability (KIN001-266 + Dasatinib; first compound 0.253 µM): 0.514
- relative viability (KIN001-266 + Dasatinib; first compound 0.8 µM): 0.447
- relative viability (KIN001-266 + Dasatinib; first compound 2.53 µM): 0.547
- relative viability (KIN001-266 + Dasatinib; first compound 8 µM): 0.475
